Experimental data: US8461362B2, “Protein phosphatase 2A-activating agents” (The Ohio State University Research Foundation, priority 2009, dated 2013)
pIC50: −log10 of the molar value. Where two headings read alike, the source gives them in different places.

Legend:
Assay type in all cases: cell-based
[1] = system: AR and its target gene product PSA in LNCaP cells; experiment: Western blot of AR and PSA expression in LNCaP cells; conditions: LNCaP cells, 72 h of incubation, 2.5% FBS, Western blot, read-out: concentration reducing expression of AR and PSA by 50%
Experimental: (§1) Cells cultured in T25 flasks were collected by scraping, and cell pellets were washed once with PBS. Cells were lysed in a lysis buffer consisting of 1% SDS, 10 mM EDTA and 50 mM Tris-HCl, pH 8.1, in the presence of a commercial protease inhibitor cocktail from Aldrich-Sigma (2 mM AEBSF, 1 mM EDTA, 130 μM bestatin, 14 μM E-64, 1 μM leupeptin, and 0.3 μM aprotinin). Following a 10-sec sonication using 20% output in a Virsonic 300 sonicator (Virtis, Gardiner N.Y.) to disrupt cellular organelles and genomic DNA, cell lysates were centrifuged at 15,200×g for 15 minutes. One μL of the suspension was used for protein determination using a colorimetric BCA assay (Pierce, Rockford, Ill.), and to the remaining solution was added an equivalent volume of 2×SDS-polyacrylamide gel electrophoresis sample loading buffer (62.5 mM Tris-HCl, pH 6.8, 4% SDS, 5% β-mercaptoethanol, 20% glycerol, and 0.1% bromophenol blue), and boiled for 5 min. Equal amounts of proteins were resolved in 8% SDS-polyacrylamide gels, and transferred to nitrocellulose membranes using a semidry transfer cell. The transblotted membrane was washed twice with Tris-buffered saline containing 0.1% Tween 20 (TBST). After blocking with TBST containing 5% nonfat milk for 40 min, the membrane was incubated with the appropriate primary antibody in TBST-1% nonfat milk at 4° C. overnight. All primary antibodies were diluted 1:1000 in 1% nonfat milk-containing TBST. After treatment with the primary antibody, the membrane was washed three times with TBST for a total of 15 min, followed by incubation with goat anti-rabbit or anti-mouse Immunoglobulin G (IgG)-horseradish peroxidase conjugates (diluted 1:2000) for 1 h at room temperature and four washes with TBST for a total of 1 h. The immunoblots were visualized by enhanced chemiluminescence.

[2] = system: Sp1 binding to AR promoter; experiment: ChIP assay of Sp1 binding to AR promoter in LNCaP cells; conditions: 72 h
Experimental: Chromatin Immunoprecipitation (ChIP).
After drug treatment, LNCaP cells (2×10^7) in 50 mL of PBS were cross-linked with 1.35 mL of 37% formaldehyde (final concentration 1%) for 15 min at room temperature. Glycine solution (1 mol/L) was added to a final concentration of 125 mmol/L to stop the cross-linking reaction. Cells were harvested and washed twice with 5 mL of PBS, and the cell pellets were lysed in a ChIP lysis buffer containing (50 mM HEPES-KOH at pH 7.5, 140 mM NaCl, 1% Triton X-100, 0.1% sodium deoxycholate, 2 mM AEBSF, 1 mM EDTA, 130 μM bestatin, […], 1 μM leupeptin, and 0.3 μM aprotinin). The suspension was sonicated at 20% output in a Virsonic 300 sonicator with 6 sets of 10-sec pulses (resulting in an average fragment size of 0.8-0.2 kb) and centrifuged for 10 min at 15,000×g at 4° C. One-μL aliquots of the transparent supernatants were taken for determining protein concentrations by BCA assays. Immunoprecipitation was carried out as described above. Aliquots of 1 mg proteins were used for immunoprecipitation using 4 μg of anti-Sp1 antibody followed by protein A/G agarose beads. […]

Sp1 = Sp1 protein expression, stability and ubiquitination in LNCaP cells; conditions: for Sp1 protein half-life relative to DMSO control / Sp1 protein expression: LNCaP cells; for Sp1 ubiquitination: LNCaP cells expressing HA-ubiquitin and Flag-Sp1, 24 h; for Sp1 protein expression: Western blot
Experimental: as §1
LNCaP cells were co-transfected with 5 μg each of Flag-Sp1 and HA-ubiquitin plasmids in an Amaxa Nucleofector using a LNCaP-specific nucleofector kit. These transiently transfected cells were seeded in 6-well plates at 2×10^5 per well. After 48-h incubation, cells were exposed to VES or TS-1 at the indicated concentration for 48 h, and lysed by a radioimmunoprecipitation assay lysis buffer (Santa Cruz Biotechnology) in the presence of a freshly prepared cocktail of phosphatase and protease inhibitors (2 mmol/L AEBSF, 1 mM EDTA, 130 μM bestatin, 14 μM E-64, 1 μM leupeptin, and 0.3 μM aprotinin, 2 mM imidazole, 1 mM sodium fluoride, 1.15 mM sodium molybdate, 1 mM sodium orthovanadate, and 4 mmol/L sodium tartrate dihydrate). After centrifugation at 13,000×g for 15 min, the supernatants were collected, preincubated with protein A/G agarose (Santa Cruz Biotechnology) for 15 min, and centrifuged at 1,000×g for 5 min. Supernatant (20 μL) were stored at 4° C. to be used as input, whereas the remaining supernatant was exposed to 4 μg of anti-Sp1 antibodies at 4° C. for 12 h, followed by protein A/G agarose beads at 4° C. for another 2 h. After brief centrifugation, immunoprecipitates were collected, washed with the aforementioned lysis buffer four times, suspended in 2×SDS sample buffer, and subjected to Western blot analysis with antibodies against HA and Flag.

Structure (SMILES) | pIC50 ([1]; Homo sapiens) | Sp1 binding to AR promoter [2] | Sp1 protein half-life relative to DMSO control (Sp1) | Sp1 ubiquitination (Sp1) | Sp1 protein expression (Sp1) | pIC50 [1]
Cc1c(C)c2c(c(C)c1OC(=O)CCC(=O)O)CCC(C)(CCCC(C)CCCC(C)C)O2 (stereo not shown) [TS-1, succinic acid mono-[2-(4,8-dimethyl-nonyl)-2,5,7,8-tetramethylchroman-6-yl]ester] | 5.30 | diminished the Sp1 binding to AR promoter in a dose-dependent manner | shortened half-life | increased the extent of Sp1 ubiquitination | reduce Sp1 levels | 
Cc1c(C)c2c(c(C)c1OC(=O)CCC(=O)O)CC[C@@](C)(CCC[C@H](C)CCC[C@H](C)CCCC(C)C)O2 [VES, α-tocopheryl succinate] |  | diminished the Sp1 binding to AR promoter in a dose-dependent manner | shortened half-life | increased the extent of Sp1 ubiquitination | reduce Sp1 levels | ≤ 5.00
